Tests used:
Assay in all cases: Pre-emerge test, greenhouse herbicide activity screening
Assay type in all cases: in vivo
[1] = system: lambsquarters (Chenopodium album, CHEAL); details: for Pre-emerge Herbicidal Activity CHEAL (phytotoxicity rating, scale 0-100): rated 14 days after application, 0 = no damage, 100 = complete death; for pest or weed control at 63 g/ha / pest or weed control at 250 g/ha: Chenopodium album, pre-emergence, 336 h, phytotoxicity rating 0-100 at 14 days after application, read-out: Pre-emerge Herbicidal Activity CHEAL; for Pre-emerge Herbicidal Activity CHEAL (phytotoxicity rating, scale 0-100) / pest or weed control at 63 g/ha / pest or weed control at 250 g/ha: pre-emerge; for pest or weed control at 63 g/ha: rate 63 g ai/ha; for pest or weed control at 250 g/ha: rate 250 g ai/ha; for Pre-emerge herbicidal activity, phytotoxicity rating CHEAL: rating scale 0-100, 14 days after application
How it was run: (§1)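 Plants grown in 10 cm pots of sandy loam mix received acetone-dissolved compounds through a moving flat-fan nozzle. Doses ranged from 15 to 1000 g ai/ha. Pre-emerge pots were seeded one day earlier, post-emerge pots 8–21 days earlier. Fourteen days on, each pot was graded 0–100 for damage.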

[2] = system: green foxtail (Setaria viridis, SETVI); details: for Pre-emerge Herbicidal Activity SETVI (phytotoxicity rating, scale 0-100): rated 14 days after application, 0 = no damage, 100 = complete death; for pest or weed control at 63 g/ha / pest or weed control at 250 g/ha: Setaria viridis, pre-emergence, 336 h, phytotoxicity rating 0-100 at 14 days after application, read-out: Pre-emerge Herbicidal Activity SETVI; for Pre-emerge Herbicidal Activity SETVI (phytotoxicity rating, scale 0-100) / pest or weed control at 63 g/ha / pest or weed control at 250 g/ha: pre-emerge; for pest or weed control at 63 g/ha: rate 63 g ai/ha; for pest or weed control at 250 g/ha: rate 250 g ai/ha; for Pre-emerge herbicidal activity, phytotoxicity rating SETVI: rating scale 0-100, 14 days after application
How it was run: as §1

[3] = system: large crabgrass (Digitaria sanguinalis, DIGSA); details: for Pre-emerge Herbicidal Activity DIGSA (phytotoxicity rating, scale 0-100): rated 14 days after application, 0 = no damage, 100 = complete death; for pest or weed control at 63 g/ha / pest or weed control at 250 g/ha: Digitaria sanguinalis, pre-emergence, 336 h, phytotoxicity rating 0-100 at 14 days after application, read-out: Pre-emerge Herbicidal Activity DIGSA; for Pre-emerge Herbicidal Activity DIGSA (phytotoxicity rating, scale 0-100) / pest or weed control at 63 g/ha / pest or weed control at 250 g/ha: pre-emerge; for pest or weed control at 63 g/ha: rate 63 g ai/ha; for pest or weed control at 250 g/ha: rate 250 g ai/ha; for Pre-emerge herbicidal activity, phytotoxicity rating DIGSA: rating scale 0-100, 14 days after application
How it was run: as §1

[4] = system: johnsongrass (Sorghum halepense, SORHA); details: for Pre-emerge Herbicidal Activity SORHA (phytotoxicity rating, scale 0-100): rated 14 days after application, 0 = no damage, 100 = complete death; for pest or weed control at 63 g/ha / pest or weed control at 250 g/ha: Sorghum halepense, pre-emergence, 336 h, phytotoxicity rating 0-100 at 14 days after application, read-out: Pre-emerge Herbicidal Activity SORHA; for Pre-emerge Herbicidal Activity SORHA (phytotoxicity rating, scale 0-100) / pest or weed control at 63 g/ha / pest or weed control at 250 g/ha: pre-emerge; for pest or weed control at 63 g/ha: rate 63 g ai/ha; for pest or weed control at 250 g/ha: rate 250 g ai/ha; for Pre-emerge herbicidal activity, phytotoxicity rating SORHA: rating scale 0-100, 14 days after application
How it was run: as §1

[5] = system: velvetleaf (Abutilon theophrasti, ABUTH); details: for Pre-emerge Herbicidal Activity ABUTH (phytotoxicity rating, scale 0-100): rated 14 days after application, 0 = no damage, 100 = complete death; for pest or weed control at 63 g/ha / pest or weed control at 250 g/ha: Abutilon theophrasti, pre-emergence, 336 h, phytotoxicity rating 0-100 at 14 days after application, read-out: Pre-emerge Herbicidal Activity ABUTH; for Pre-emerge Herbicidal Activity ABUTH (phytotoxicity rating, scale 0-100) / pest or weed control at 63 g/ha / pest or weed control at 250 g/ha: pre-emerge; for pest or weed control at 63 g/ha: rate 63 g ai/ha; for pest or weed control at 250 g/ha: rate 250 g ai/ha; for Pre-emerge herbicidal activity, phytotoxicity rating ABUTH: rating scale 0-100, 14 days after application
How it was run: as §1

[6] = system: ivyleaf morningglory (Ipomoea hederacea, IPOHE); details: for Pre-emerge Herbicidal Activity IPOHE (phytotoxicity rating, scale 0-100): rated 14 days after application, 0 = no damage, 100 = complete death; for pest or weed control at 63 g/ha / pest or weed control at 250 g/ha: Ipomoea, pre-emergence, 336 h, phytotoxicity rating 0-100 at 14 days after application, read-out: Pre-emerge Herbicidal Activity IPOHE; for Pre-emerge Herbicidal Activity IPOHE (phytotoxicity rating, scale 0-100) / pest or weed control at 63 g/ha / pest or weed control at 250 g/ha: pre-emerge; for pest or weed control at 63 g/ha: rate 63 g ai/ha; for pest or weed control at 250 g/ha: rate 250 g ai/ha; for Pre-emerge herbicidal activity, phytotoxicity rating IPOHE: rating scale 0-100, 14 days after application
How it was run: as §1

[7] = system: barnyardgrass (Echinochloa crus-galli, ECHCG); details: for Pre-emerge Herbicidal Activity ECHCG (phytotoxicity rating, scale 0-100): rated 14 days after application, 0 = no damage, 100 = complete death; for pest or weed control at 63 g/ha / pest or weed control at 250 g/ha: Echinochloa crus-galli, pre-emergence, 336 h, phytotoxicity rating 0-100 at 14 days after application, read-out: Pre-emerge Herbicidal Activity ECHCG; for Pre-emerge Herbicidal Activity ECHCG (phytotoxicity rating, scale 0-100) / pest or weed control at 63 g/ha / pest or weed control at 250 g/ha: pre-emerge; for pest or weed control at 63 g/ha: rate 63 g ai/ha; for pest or weed control at 250 g/ha: rate 250 g ai/ha; for Pre-emerge herbicidal activity, phytotoxicity rating ECHCG: rating scale 0-100, 14 days after application
How it was run: as §1

| Compound | pest or weed control at 63 g/ha [1] | pest or weed control at 250 g/ha [1] | pest or weed control at 63 g/ha [2] | pest or weed control at 250 g/ha [2] | pest or weed control at 63 g/ha [3] | pest or weed control at 250 g/ha [3] | pest or weed control at 63 g/ha [4] | pest or weed control at 250 g/ha [4] | pest or weed control at 63 g/ha [5] | pest or weed control at 250 g/ha [5] | pest or weed control at 63 g/ha [6] | pest or weed control at 250 g/ha [6] | pest or weed control at 63 g/ha [7] | pest or weed control at 250 g/ha [7] | other results |
| --- | --- | --- | --- | --- | --- | --- | --- | --- | --- | --- | --- | --- | --- | --- | --- |
| Cn1c(C(F)(F)F)cc(=O)n(-c2c(F)cc(Cl)c(OC(F)F)c2N)c1=O [Compound 1-38, 3-(2-amino-4-chloro-3-difluoromethoxy-6-fluorophenyl)-1-methyl-6-trifluoromethyl-2,4(1H, 3H)-pyrimidinedione] |  |  |  |  |  |  |  |  |  |  |  |  |  |  | Pre-emerge Herbicidal Activity CHEAL (phytotoxicity rating, scale 0-100) ([1]; 63 g ai/ha): 100; Pre-emerge Herbicidal Activity CHEAL (phytotoxicity rating, scale 0-100) ([1]; 250 g ai/ha): 100; Pre-emerge Herbicidal Activity SETVI (phytotoxicity rating, scale 0-100) ([2]; 63 g ai/ha): 100; Pre-emerge Herbicidal Activity SETVI (phytotoxicity rating, scale 0-100) ([2]; 250 g ai/ha): 100; Pre-emerge Herbicidal Activity DIGSA (phytotoxicity rating, scale 0-100) ([3]; 63 g ai/ha): 100; Pre-emerge Herbicidal Activity DIGSA (phytotoxicity rating, scale 0-100) ([3]; 250 g ai/ha): 100; Pre-emerge Herbicidal Activity SORHA (phytotoxicity rating, scale 0-100) ([4]; 63 g ai/ha): 90; Pre-emerge Herbicidal Activity SORHA (phytotoxicity rating, scale 0-100) ([4]; 250 g ai/ha): 100; Pre-emerge Herbicidal Activity ABUTH (phytotoxicity rating, scale 0-100) ([5]; 63 g ai/ha): 100; Pre-emerge Herbicidal Activity ABUTH (phytotoxicity rating, scale 0-100) ([5]; 250 g ai/ha): 100; Pre-emerge Herbicidal Activity IPOHE (phytotoxicity rating, scale 0-100) ([6]; 63 g ai/ha): 100; Pre-emerge Herbicidal Activity IPOHE (phytotoxicity rating, scale 0-100) ([6]; 250 g ai/ha): 100; Pre-emerge Herbicidal Activity ECHCG (phytotoxicity rating, scale 0-100) ([7]; 63 g ai/ha): 95; Pre-emerge Herbicidal Activity ECHCG (phytotoxicity rating, scale 0-100) ([7]; 250 g ai/ha): 100 |
| COc1c(Cl)cc(F)c(-n2nc(C)n(C(F)F)c2=O)c1NC(=O)c1ccc2ccccc2c1 [Compound 6-15] | 100% | 100% | 95% | 100% | 80% | 100% | 50% | 100% | 100% | 100% | 70% | 40% | 50% | 80% |  |
| Cc1nn(-c2c(N)cc(Cl)cc2F)c(=O)n1C(F)F [Compound 6-22] | 40% | 100% | 10% | 50% | 0% | 20% | 0% | 10% | 20% | 100% | 0% | 0% | 0% | 0% |  |
| CC(C)Oc1c(Cl)cc(F)c(-n2nnn(CCCF)c2=O)c1N [Compound 5-18, 1-(2-amino-4-chloro-6-fluoro-3-isopropyloxyphenyl)-4-(3fluoropropyl)-1,4-dihydro-5-oxo-5H-tetrazole] | 70% | 95% | 95% | 90% | 30% | 20% | 40% | 30% | 40% | 70% | 0% | 0% | 0% | 0% |  |
| COc1c(Cl)cc(F)c(-c2nn(C)c(C(F)(F)F)c2Cl)c1NC(=O)C=Cc1ccccc1 [Compound 7-15] | 100% | 100% | 0% | 60% | 0% | 60% | 0% | 20% | 40% | 90% | 0% | 50% | 0% | 10% |  |
| COc1c(Cl)cc(F)c(N2C(=O)c3ccccc3C2=O)c1NC(=O)c1ccc2ccccc2c1 [Compound 13-3, N-[4-chloro-6-fluoro-3-methoxy-2-(2-naphthoyl)aminophenyl]phthalimide] |  |  |  |  |  |  |  |  |  |  |  |  |  |  | Pre-emerge herbicidal activity, phytotoxicity rating CHEAL ([1]; 63 g ai/ha): 90; Pre-emerge herbicidal activity, phytotoxicity rating CHEAL ([1]; 250 g ai/ha): 100; Pre-emerge herbicidal activity, phytotoxicity rating SETVI ([2]; 63 g ai/ha): 10; Pre-emerge herbicidal activity, phytotoxicity rating SETVI ([2]; 250 g ai/ha): 40; Pre-emerge herbicidal activity, phytotoxicity rating DIGSA ([3]; 63 g ai/ha): 0; Pre-emerge herbicidal activity, phytotoxicity rating DIGSA ([3]; 250 g ai/ha): 30; Pre-emerge herbicidal activity, phytotoxicity rating SORHA ([4]; 63 g ai/ha): 0; Pre-emerge herbicidal activity, phytotoxicity rating SORHA ([4]; 250 g ai/ha): 10; Pre-emerge herbicidal activity, phytotoxicity rating ABUTH ([5]; 63 g ai/ha): 0; Pre-emerge herbicidal activity, phytotoxicity rating ABUTH ([5]; 250 g ai/ha): 20; Pre-emerge herbicidal activity, phytotoxicity rating IPOHE ([6]; 63 g ai/ha): 0; Pre-emerge herbicidal activity, phytotoxicity rating IPOHE ([6]; 250 g ai/ha): 0; Pre-emerge herbicidal activity, phytotoxicity rating ECHCG ([7]; 63 g ai/ha): 0; Pre-emerge herbicidal activity, phytotoxicity rating ECHCG ([7]; 250 g ai/ha): 10 |
| Cc1nn(-c2c(Cl)cc(Cl)c(N)c2N)c(=O)n1C(F)F [Compound 6-20] | 50% | 30% | 0% | 0% | 0% | 0% | 0% | 0% | 0% | 0% | 0% | 0% | 0% | 0% |  |
| Cc1nn(-c2c(Cl)cc(Cl)cc2NC(=O)c2ccc3ccccc3c2)c(=O)n1C(F)F [Compound 6-16] | 100% | 100% | 60% | 90% | 30% | 90% |  |  | 10% | 20% | 0% | 0% | 10% | 30% |  |
| COc1c(Cl)cc(Cl)c(-n2nc(C)n(C(F)F)c2=O)c1NC(=O)c1ccc2ccccc2c1 [Compound 6-17] | 100% | 100% | 70% | 99% | 30% | 99% |  |  | 30% | 95% | 0% | 30% | 10% | 90% |  |
| Cc1nn(-c2c(F)cc(Cl)cc2NC(=O)c2ccc3ccccc3c2)c(=O)n1C(F)F [Compound 6-24] | 30% | 90% | 0% | 40% | 0% | 20% |  |  | 0% | 70% | 0% | 0% | 0% | 0% |  |
| COc1c(Cl)cc(F)c(-c2nn(C)c(C(F)(F)F)c2Cl)c1NC(=O)c1ccc2ccccc2c1 [Compound 7-14] | 70% | 100% | 0% | 70% | 60% | 70% |  |  | 40% | 60% | 30% | 20% | 0% | 40% |  |
